Test results from patent publication US8097758B2, “Isoserine derivatives for use as coagulation factor IXa inhibitors” (Sanofi-Aventis, priority 2006, dated 2012).
pIC50: −log10 of the molar value.

Target: T1, factor IXa (Homo sapiens, UniProt P00740)
T1 construct: purchased Calbiochem (Merck KGaA) 233290
Experiment: Factor IXa enzyme assay (chromogenic substrate PEFA 3107)
Assay type: biochemical
Conditions: factor IXa 277 nM final, pH 7.4, 15 min preincubation at room temperature, read at 405 nm, duplicate determination
Method: The prepared substances from the examples were tested for inhibition of the enzymatic activity of FIXa using the substrate PEFA 3107 (Pentapharm/Loxo; via S. Black GmbH, Baumstrasse 41, 47198 Duisburg, Germany; Pr. No. 095-20) and factor IXa (Calbiochem, Merck KGaA markets Calbiochem in Germany, Life Science & Analytics, 64293 Darmstadt; Pr. No. 233290). In this method, 28 μl of test buffer (50 mM α,α,α-tris(hydroxymethyl)methylamine (TRIS), 100 mM NaCl, 5 mM CaCl2, 0.1% bovine serum albumin, pH 7.4) and 10 μl of factor IXa (277 nM final concentration in the test batch) were added to 2 μl of 10 mM dimethyl sulfoxide solution of the respective test substance, and the mixture was incubated for 15 minutes at room temperature in a 96 half-well microtiter plate. The enzyme reaction was started by addition of 10 μl of substrate (1 mM stock solution in water). The time course of the reaction was monitored at 405 nm in a microtiter plate reader (SpectraMax plus 384; Molecular Devices) for 15 minutes.
The IC50 was calculated from the averaged values (duplicate determination) of a dilution series of the test substance with the aid of the software Grafit 4 (Erithacus Software, UK). The inhibition constants (Ki) were calculated according to the Cheng Prusoff equation Ki=IC50/(1+(S/Km), where S=concentration of the test substrate in the test and Km=Michaelis-Menten constant.

T1 sequence (P00740 227-461 limits assumed): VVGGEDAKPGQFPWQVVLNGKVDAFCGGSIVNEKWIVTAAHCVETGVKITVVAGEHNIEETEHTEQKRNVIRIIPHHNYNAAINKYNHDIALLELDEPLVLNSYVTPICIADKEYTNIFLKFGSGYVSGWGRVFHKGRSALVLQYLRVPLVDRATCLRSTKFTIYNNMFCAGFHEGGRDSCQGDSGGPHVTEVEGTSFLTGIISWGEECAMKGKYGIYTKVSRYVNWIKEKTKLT
T1 sequence (P00740 47-191 partner limits assumed): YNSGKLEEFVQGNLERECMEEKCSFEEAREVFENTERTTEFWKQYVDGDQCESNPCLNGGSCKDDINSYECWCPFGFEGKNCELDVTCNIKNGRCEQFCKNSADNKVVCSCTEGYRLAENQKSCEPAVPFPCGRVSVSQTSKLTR

| pIC50 | Compound |
| --- | --- |
| 6.55 | CC(C)c1ccc(C(=O)NC(c2ccccc2)C(O)C(=O)Nc2ccc3nc(N)[nH]c3c2)cc1 (stereo not drawn) [Example 17, N-[2-(2-Amino-3H-benzimidazol-5-ylcarbamoyl)-2-hydroxy-1-phenylethyl]-4-isopropylbenzamide] |
| 5.87 | Nc1nc2ccc(NC(=O)C(O)C(NC(=O)c3ccc(N4CCOCC4)cc3)c3ccccc3)cc2[nH]1 (stereo not drawn) [Example 53, N-[2-(2-Amino-3H-benzimidazol-5-ylcarbamoyl)-2-hydroxy-1-phenylethyl]-4-morpholin-4-yl-benzamide] |
| 6.14 | CCc1ccc(C(=O)NC(c2ccccc2)C(O)C(=O)Nc2ccc3nc(N)[nH]c3c2)s1 (stereo not drawn) [Example 68, 5-Ethylthiophene-2-carboxylic acid [2-(2-amino-3H-benzimidazol-5-ylcarbamoyl)-2-hydroxy-1-phenylethyl]amide] |
| 6.24 | Nc1nc2ccc(NC(=O)C(O)C(NC(=O)c3ccc(-c4cccs4)s3)c3ccccc3)cc2[nH]1 (stereo not drawn) [Example 81, [2,2′]Bithiophenyl-5-carboxylic acid [2-(2-amino-3H-benzimidazol-5-ylcarbamoyl)-2-hydroxy-1-phenylethyl]amide] |
| 6.85 | CCc1ccc(C(=O)NC(c2ccccc2)C(O)C(=O)Nc2ccc3c(N)nccc3c2)cc1 (stereo not drawn) [Example 87, N-[2-(1-Aminoisoquinolin-6-ylcarbamoyl)-2-hydroxy-1-phenylethyl]-4-ethylbenzamide] |
| 6.77 | COc1cc(OC)cc(C(NC(=O)c2ccc(C(C)C)cc2)C(O)C(=O)Nc2ccc3nc(N)[nH]c3c2)c1 (stereo not drawn) [Example 134, N-[2-(2-Amino-3H-benzimidazol-5-ylcarbamoyl)-1-(3,5-dimethoxyphenyl)-2-hydroxyethyl]-4-iso-propylbenzamide] |
